In paper PMC3298710, “^111In-BnDTPA-F3: an Auger electron-emitting radiotherapeutic agent that targets nucleolin” (EJNMMI Research, 2012):

Tested on: 231-H2N cells
Test: Clonogenic survival
Assay type: cell-based, human
Conditions: 24 h, amount equivalent to 2 μM 111In-BnDTPA-F3 at highest specific activity, from 100 ± 5%
Description: […] After incubation at 37°C for 24 h, 2 × 10^3 cells were seeded per well in a 6-well plate, and 2 mL of fresh growth medium was added. After 7 to 14 days, cell colonies were stained with methylene blue (2% methylene blue in water/methanol 1:1) and counted. Combination indices (CI) of ^111In with BnDTPA-F3 were determined as described by Edelman et al.. A CI < 0.9 indicates superadditivity.

`[Cl][111In]([Cl])[Cl]` [111In chloride] was tested. Which “clonogenic survival, equivalent amount of 111In chloride” value did it give?
Its value is 46 ± 4%.
